Assay type in all cases: functional
For assay [1], the species on record is Mus musculus. The assay can be described thus: Effective dose required for anticonvulsive activity in maximal electroshock seizure (MES) test; Not effective. On the technique in general: In the maximal electroshock model the usual endpoint is tonic extension of the hind limbs.
For assay [2], the species on record is Mus musculus. The assay can be described thus: Anticonvulsive activity in picrotoxin (PCR) induced seizure test (ineffective).
The species entered for assay [3] is Mus musculus. The assay can be described thus: Effective dose required for anticonvulsive activity in bicuculline (BIC) test; Not effective.
For assay [4], the system named is Mus musculus. The assay can be described thus: Effective dose required for anticonvulsive activity in pentylenetetrazole (PTZ) test at >0.1 mmol/kg.
The species named for assay [5] is Mus musculus. The assay can be described thus: Anticonvulsive activity in picrotoxin (PCR) induced seizure test.
The species named for assay [6] is Mus musculus. The assay can be described thus: Effective dose required for anticonvulsive activity in maximal electroshock seizure (MES) test.
For assay [7], the species on record is Mus musculus. The assay can be described thus: Effective dose required for anticonvulsive activity in pentylenetetrazole (PTZ) test.
For assay [8], the species on record is Mus musculus. The assay can be described thus: Effective dose required for anticonvulsive activity in bicuculline (BIC) test.
In assay [9] the test system is Mus musculus. The assay can be described thus: Protection from picrotoxin-induced (0.27 mmol/kg) convulsion over 6 hr at 100 mg/kg in 4 mice.
Assay [10] has as its system Mus musculus. The assay can be described thus: Protection from picrotoxin-induced (0.27 mmol/kg) convulsion over 9 hr at 100 mg/kg in 4 mice.
Assay [11] deals with Mus musculus. The assay can be described thus: Protection from picrotoxin-induced (0.27 mmol/kg) convulsion over 3 hr at 100 mg/kg in 4 mice.
The test system of assay [12] is Mus musculus. The assay can be described thus: Protection from picrotoxin-induced (0.27 mmol/kg) convulsion over 16 hr at 100 mg/kg in 4 mice.
Assay [13] is filed under the species Mus musculus. The assay can be described thus: Effective dose required for anticonvulsive activity in pentylenetetrazole (PTZ) test; Not effective.

Bounds are passed on as bounds.

For orientation: ED50 means the dose that gives a 50% effect, or the effect in half of the subjects. A high value points to weaker potency. For `O=C1CCCN1` [2-PYRROLIDONE], the ED50 in [1] is greater than 1000 µmol/kg; in [2], greater than 1000 µmol/kg; in assay [3], greater than 1000 µmol/kg; in assay [4], 540 µmol/kg.
As for `C=CC(CCC(=O)OC)NC(=O)C1CCNCC1` (stereo not drawn), the ED50 in assay [5] was 390 µmol/kg; in assay [6], greater than 540 µmol/kg; in [7] it was greater than 540 µmol/kg; in [8], 460 µmol/kg.
With `C=CC(N)CCC(=O)O` (stereo not drawn) [VIGABATRIN], the ED50 in assay [1] is greater than 1000 µmol/kg; in [5], 210 µmol/kg; in assay [8], 220 µmol/kg; in [13], greater than 1000 µmol/kg. Also, the “No. of mice protected” value amounted to 4 in assay [9], 3 in [10], 4 in [11] and 0 in assay [12].
`O=C(O)C1CCCNC1` (stereo not drawn) [NIPECOTIC ACID]: the ED50 in assay [1] and in assay [3] was greater than 1000 µmol/kg throughout.
Take `C=CC(N)CCC(=O)N1CCCC(C(=O)OC)C1` (stereo not drawn): the ED50 is 100 µmol/kg in [5], greater than 540 µmol/kg in [6], 150 µmol/kg in [7] and 140 µmol/kg in assay [8]. For the same compound, the “No. of mice protected” value was found to be 0 in assay [9], 0 in assay [10], 2 in assay [11] and 0 in assay [12].
As to `O=C(O)C1CCNCC1` [ISONIPECOTIC ACID], in [3], the ED50 was greater than 1000 µmol/kg.
Take `C=CC(CCC(=O)OC)NC(=O)C1CCCNC1` (stereo not drawn): the ED50 is 260 µmol/kg in [5], greater than 540 µmol/kg in assay [6], 410 µmol/kg in [7] and 310 µmol/kg in assay [8].
For `C=CC(N)CCC(=O)N1CCCC1=O` (stereo not drawn), in that order: 260 µmol/kg, greater than 540 µmol/kg, greater than 540 µmol/kg and 200 µmol/kg.
Regarding `C=CC(N)CCC(=O)N1CCC(C(=O)OC)CC1` (stereo not drawn), the ED50 in [5] is 260 µmol/kg; in [6], greater than 540 µmol/kg; in [7] it was 320 µmol/kg; in assay [8] it was 150 µmol/kg. The “No. of mice protected” value in assay [9] is reported as 2; in assay [10], 0; in [11] it was 2; in [12], 0.

The values above are taken from ChEMBL document CHEMBL1133497, “Design and synthesis of anticonvulsive agents as gamma-vinyl GABA-based potential dual acting prodrugs and their biological activities” (2000).
